Here are results for 17 compounds from patent US20180093956A1, “SUBSTITUTED PHTHALAZINES” (AbbVie Inc., priority 2015, published 2018).

One may read the IC50 as the concentration needed to halve the response being measured.

The assay deals with SUV420H1 enzyme (Homo sapiens, UniProt Q4FZB7). Nature of the assay: TR-FRET SAH SUV420H1 enzyme inhibition assay. It is filed as biochemical. The following applies: Histone Peptide H4(8-30)me1 and SAM, TR-FRET detection of SAH, read-out: TR-FRET SAH_SUV420H1 IC50. The procedure:
Test compounds were dispensed by a Labcyte Echo in 384-well low volume assay plates with 3-fold serial dilutions from 50 μM to 0.00075 μM. 5 μL of SUV420H1 enzyme (Abbvie) at 90 nM was added to all wells except for the no enzyme control wells and incubated for 30 minutes at room temperature before 5 μL of Histone Peptide H4(8-30)me1 (Anaspec) at 5 μM and SAM at 4 μM was added to all wells. The plates were incubated in a humidified chamber overnight at room temp and then 10 μL of the detection reagent that contained RIPA buffer (50 mM Tris-HCl, pH 8.0, 150 mM sodium chloride, 1.0% Igepal CA-630 (NP-40), 0.5% sodium deoxycholate and 0.1% sodium dodecyl sulfate) (Sigma) with 2 nM of Terbium chelate anti S-adenosyl-L-homocysteine (SAH) (Abbvie) antibody and Oregon Green labeled SAH at 4 nM was added. The plates were further incubated for 4 hours at room temperature. The plates were read in a Perkin Elmer Envision using a TR-FRET protocol with Excitation set at 335 nm and Emission at 520 and 495 nm. To generate dose response curves the data is normalized to percent inhibition by setting the average of the plus and minus enzyme control wells to 0% and 100% inhibition respectively. The ICso values for the compounds are generated by fitting the normalized data with Accelrys Assay Explorer 3.3 to a sigmoidal curve model using […], Y=(100*x^n)/(K^n+x^n), where Y is the measured response, x is the compound concentration, n is the Hill Slope and K is the IC50 and the lower and higher asymptotes are constrained to 0 and 100 respectively.
(In TR-FRET formats the signal depends on donor and acceptor labels being close together.)

SUV420H1 enzyme, sequence (Q4FZB7 whole entry): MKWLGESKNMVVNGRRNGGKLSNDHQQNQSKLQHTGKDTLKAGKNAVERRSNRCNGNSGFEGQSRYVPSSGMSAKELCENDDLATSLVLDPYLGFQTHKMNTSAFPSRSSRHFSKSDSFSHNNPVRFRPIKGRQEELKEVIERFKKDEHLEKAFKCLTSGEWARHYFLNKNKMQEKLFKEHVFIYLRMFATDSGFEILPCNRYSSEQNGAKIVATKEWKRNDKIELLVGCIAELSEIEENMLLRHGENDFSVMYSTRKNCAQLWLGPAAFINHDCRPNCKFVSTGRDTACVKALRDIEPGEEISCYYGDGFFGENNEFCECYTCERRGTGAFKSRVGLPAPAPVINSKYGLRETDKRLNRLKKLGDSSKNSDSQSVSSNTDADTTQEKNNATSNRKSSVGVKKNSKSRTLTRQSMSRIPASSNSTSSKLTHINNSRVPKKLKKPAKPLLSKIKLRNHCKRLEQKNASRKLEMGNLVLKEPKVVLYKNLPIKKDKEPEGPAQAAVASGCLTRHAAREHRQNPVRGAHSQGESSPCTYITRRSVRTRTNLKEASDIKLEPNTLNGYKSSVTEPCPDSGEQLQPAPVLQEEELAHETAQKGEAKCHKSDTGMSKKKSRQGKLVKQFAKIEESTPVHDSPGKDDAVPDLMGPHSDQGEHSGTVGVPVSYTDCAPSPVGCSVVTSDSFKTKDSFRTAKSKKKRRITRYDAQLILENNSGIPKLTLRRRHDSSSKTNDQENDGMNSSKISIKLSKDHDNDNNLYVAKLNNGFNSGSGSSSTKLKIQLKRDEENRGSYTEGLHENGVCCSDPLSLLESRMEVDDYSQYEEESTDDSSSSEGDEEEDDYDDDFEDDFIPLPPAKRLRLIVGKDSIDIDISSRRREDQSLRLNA

“6,7-dichloro-4-(cyclopentylamino)phthalazine-1-carboxylic acid [Example 38]”: the IC50 was found to be 8680 nM. The value for `O[C@@H]1CC[C@H](Nc2nnc(Cl)c3cc(Cl)c(Cl)cc23)C1` (racemic) [Example 13, rac-(1R,3S)-3-[(4,6,7-trichlorophthalazin-1-yl)amino]cyclopentanol] was 2630 nM; that for `Clc1cc2c(NC3CCCC3)nnc(-c3ccccc3)c2cc1Cl` [Example 2, 6,7-dichloro-N-cyclopentyl-4-phenylphthalazin-1-amine] was 28900 nM; that for `Clc1cc2c(NC3CCCC3)nnc(N3CCOCC3)c2cc1Cl` [Example 10, 6,7-dichloro-N-cyclopentyl-4-(morpholin-4-yl)phthalazin-1-amine] was 48400 nM. Next, `Clc1cc2c(NC3CCCC3)nnc(N3CCCC3)c2cc1Cl` [Example 11, 6,7-dichloro-N-cyclopentyl-4-(pyrrolidin-1-yl)phthalazin-1-amine]: over 50000 nM. On to `Fc1cc(-c2nnc(NC3CCCC3)c3cc(Cl)c(Cl)cc23)ccn1` [Example 12, 6,7-dichloro-N-cyclopentyl-4-(2-fluoropyridin-4-yl)phthalazin-1-amine], for which the concentration for half-maximal inhibition (IC50) is 827 nM. The value for `Clc1cc2c(NC3CCCC3)nnc(-c3ccc(CN4CCOCC4)cc3)c2cc1Cl` [Example 14, 6,7-dichloro-N-cyclopentyl-4-[4-(morpholin-4-ylmethyl)phenyl]phthalazin-1-amine] was 19100 nM. Next, `Clc1cc2c(NC3CCCC3)nnc(-c3ccnc(N4CCCC4)c3)c2cc1Cl` [Example 15, 6,7-dichloro-N-cyclopentyl-4-[2-(pyrrolidin-1-yl)pyridin-4-yl]phthalazin-1-amine]: over 50000 nM; `CN1CCN(c2cc(-c3nnc(NC4CCCC4)c4cc(Cl)c(Cl)cc34)ccn2)CC1` [Example 16, 6,7-dichloro-N-cyclopentyl-4-[2-(4-methylpiperazin-1-yl)pyridin-4-yl]phthalazin-1-amine]: 8350 nM; `Clc1cc2c(NC3CCCC3)nnc(-c3ccnc(N4CCOCC4)c3)c2cc1Cl` [Example 17, 6,7-dichloro-N-cyclopentyl-4-[2-(morpholin-4-yl)pyridin-4-yl]phthalazin-1-amine]: 7380 nM. Next, `CN1CCN(c2ccc(-c3nnc(NC4CCCC4)c4cc(Cl)c(Cl)cc34)cn2)CC1` [Example 21, 6,7-dichloro-N-cyclopentyl-4-[6-(4-methylpiperazin-1-yl)pyridin-3-yl]phthalazin-1-amine]: 1460 nM. In the case of `Clc1cc2c(NC3CCCC3)nnc(-c3ccc(N4CCOCC4)nc3)c2cc1Cl` [Example 22, 6,7-dichloro-N-cyclopentyl-4-[6-(morpholin-4-yl)pyridin-3-yl]phthalazin-1-amine], the concentration for half-maximal inhibition (IC50) was 1010 nM. Next, `CC(C)(C)OC(=O)N1CC=C(c2nnc(NC3CCCC3)c3cc(Cl)c(Cl)cc23)CC1` [Example 23, tert-butyl 4-[6,7-dichloro-4-(cyclopentylamino)phthalazin-1-yl]-3,6-dihydropyridine-1(2H)-carboxylate]: 1510 nM. Next, `Clc1cc2c(NC3CCCC3)nnc(C3=CCNCC3)c2cc1Cl` [Example 24, 6,7-dichloro-N-cyclopentyl-4-(1,2,3,6-tetrahydropyridin-4-yl)phthalazin-1-amine]: 1280 nM; `CC(=O)N1CC=C(c2nnc(NC3CCCC3)c3cc(Cl)c(Cl)cc23)CC1` [Example 25, 1-{4-[6,7-dichloro-4-(cyclopentylamino)phthalazin-1-yl]-3,6-dihydropyridin-1(2H)-yl}ethanone]: 1100 nM. The value for `Clc1cc2c(NC3CCCC3)nnc(-c3ccc(N4CCNCC4)nc3)c2cc1Cl` [Example 27, 6,7-dichloro-N-cyclopentyl-4-[6-(piperazin-1-yl)pyridin-3-yl]phthalazin-1-amine] was 1320 nM; that for `OC1CCN(c2ccc(-c3nnc(NC4CCCC4)c4cc(Cl)c(Cl)cc34)cn2)CC1` [Example 28, 1-{5-[6,7-dichloro-4-(cyclopentylamino)phthalazin-1-yl]pyridin-2-yl}piperidin-4-ol] was 572 nM.
